Molecules are shown by their SMILES. pIC50: −log10 of the molar value.

The test system of this test is IL-12 production in human PBMC or THP-1 cells. Nature of the test: In vitro inhibition of IL-12 production in stimulated human PBMC or THP-1 cells (ELISA). As to conditions: representative in vitro IC50 data. In kind it is cell-based. The source says: The biological activities of a heterocyclic compound can be evaluated by a number of cell-based assays. One of such assays can be conducted using cells from human peripheral blood mononuclear cells (PBMC) or human monocytic cell line (THP-1). The cells are stimulated with a combination of human interferon-γ (IFNγ) and lipopolysaccharide or a combination of IFNγ and Staphylococcus aureus Cowan I in the presence of a test compound. The level of inhibition of IL-12 production can be measured by determining the amount of p70 by using a sandwich ELISA assay with anti-human IL-12 antibodies. IC50 of the test compound can then be determined. Specifically, PBMC or THP-1 cells are incubated with the test compound. Cell viability was assessed using the bioreduction of MTS [3-(4,5-dimethylthiazol-2-yl)-5-(3-carboxymethoxyphenyl)-2-(4-sulfophenyl)-2H-tetrazolium] (Promega, Madison, Wis.).
Reagents. Staphylococcus aureus Cowan I (SAC) was obtained from Calbiochem (La Jolla, Calif.), and lipopolysaccharide (LPS, Serratia marscencens) was obtained from Sigma (St. Louis, Mo.). Human and mouse recombinant IFNγ were purchased from Boehringer Mannheim (Mannheim, Germany) and Pharmingen (San Diego, Calif.), respectively.
Human In Vitro Assay. Human PBMC were isolated by centrifugation using Ficoll-Paque (Pharmacia Biotech, Uppsala, Sweden) and prepared in RPMI medium supplemented with 10% fetal calf serum (FCS), 100 U/mL penicillin, and 100 μg/mL streptomycin. PBMC were plated in wells of a 96-well plate at a concentration of 5×10^5 cells/well, and primed by adding IFNγ (30 U/mL) for 22 h and stimulated by adding LPS (1 μg/mL), or by adding IFNγ (100 U/mL) and then stimulated by adding SAC (0.01%). A test pyrimidine compound was dissolved in DMSO, and added to wells of the 96-well plate. The final DMSO concentration was adjusted to 0.25% in all cultures, including the compound-free control. Human THP-1 cells were plated in wells, primed by adding IFNγ (100 U/mL) for 22 h and stimulated by adding SAC (0.025%) in the presence of different concentrations of the pyrimidine compound. Cell-free supernatants were taken 18 h later for measurement of cytokines. Cell viability was assessed using the bioreduction of MTS. Cell survival was estimated by determining the ratio of the absorbance in compound-treated groups versus compound-free control.
The supernatant was assayed for the amount of IL-12p40, IL-12p70, or IL-10 by using a sandwich ELISA with anti-human antibodies, i.e., a Human IL-12 p40 ELISA kit from R&D Systems (Berkeley, Calif.), and a Human IL-12 p70 or IL-10 ELISA kit from Endogen (Cambridge, Mass.). Assays were based on the manufacturer's instructions.
The biological activities of pyrimidine compounds were tested on human PBMC or THP-1 cells. Unexpectedly, some of the test compounds have IC50 values as low as <1 nM.
The pIC50 is the negative decadic logarithm of the IC50, by convention in mol/L. Regarding `COc1cccc(NC(=O)OCCCc2nc(N/N=C/c3cccc(C)c3)cc(N3CCOCC3)n2)c1` [Compound 1, (3-Methoxy-phenyl)-carbamic acid 3-{4-[N′-(3-methyl-benzylidene)-hydrazino]-6-morpholin-4-yl-pyrimidin-2-yl}-propyl ester], the negative logarithm of the IC50 (pIC50) is 7.30 to 7.60.

With `Cc1cccc(/C=N/Nc2cc(N3CCOCC3)nc(CCCOC(=O)Nc3cccc(C(F)(F)F)c3)n2)c1` [Compound 2, (3-Trifluoromethyl-phenyl)-carbamic acid 3-{4-[N′-(3-methyl-benzylidene)-hydrazino]-6-morpholin-4-yl-pyrimidin-2-yl}-propyl ester], the negative-log IC50 (pIC50) was over 7.60.

Regarding `Cc1ccc(NC(=O)OCCCc2nc(N/N=C/c3cccc(C)c3)cc(N3CCOCC3)n2)cc1` [Compound 3, p-Tolyl-carbamic acid 3-{4-[N′-(3-methyl-benzylidene)-hydrazino]-6-morpholin-4-yl-pyrimidin-2-yl}-propyl ester], the pIC50 was over 7.60.

With `Cc1cccc(/C=N/N(C)c2cc(N3CCOCC3)nc(CCCOC(=O)Nc3cccc(C(F)(F)F)c3)n2)c1` [Compound 4, (3-Trifluoromethyl-phenyl)-carbamic acid 3-{4-[N-methyl-N′-(3-methyl-benzylidene)-hydrazino]-6-morpholin-4-yl-pyrimidin-2-yl}-propyl ester], the negative-log IC50 (pIC50) was under 7.30.

For the molecule `Cc1cccc(/C=N/Nc2cc(N3CCOCC3)nc(CCCOC(=O)NC3CCCCC3)n2)c1` [Compound 5, Cyclohexyl-carbamic acid 3-{4-[N′-(3-methyl-benzylidene)-hydrazino]-6-morpholin-4-yl-pyrimidin-2-yl}-propyl ester], the pIC50 was over 7.60.

Take `Cc1cccc(/C=N/Nc2cc(N3CCOCC3)nc(CCCOC(=O)Nc3ccccc3F)n2)c1` [Compound 6, (2-Fluoro-phenyl)-carbamic acid 3-{4-[N′-(3-methyl-benzylidene)-hydrazino]-6-morpholin-4-yl-pyrimidin-2-yl}-propyl ester]: the negative logarithm of the IC50 (pIC50) is over 7.60.

With `Cc1cccc(/C=N/Nc2cc(N3CCOCC3)nc(CCCOC(=O)Nc3ccc([N+](=O)[O-])cc3)n2)c1` [Compound 7, (4-Nitro-phenyl)-carbamic acid 3-{4-[N′-(3-methyl-benzylidene)-hydrazino]-6-morpholin-4-yl-pyrimidin-2-yl}-propyl ester], the pIC50 is over 7.60.

With `CCNC(=O)OCCCc1nc(N/N=C/c2cccc(C)c2)cc(N2CCOCC2)n1` [Compound 8, Ethyl-carbamic acid 3-{4-[N′-(3-methyl-benzylidene)-hydrazino]-6-morpholin-4-yl-pyrimidin-2-yl}-propyl ester], the pIC50 was over 7.60.

On to `Cc1cccc(/C=N/Nc2cc(N3CCOCC3)nc(CCCOC(=S)Nc3cccnc3)n2)c1` [Compound 9, Pyridin-3-yl-thiocarbamic acid O-(3-{4-[N′-(3-methyl-benzylidene)-hydrazino]-6-morpholin-4-yl-pyrimidin-2-yl}-propyl) ester], for which the pIC50 was over 7.60.

For `Cc1cccc(/C=N/Nc2cc(N3CCOCC3)nc(CCCOC(=O)Nc3cccc4ccccc34)n2)c1` [Compound 10, Naphthalen-1-yl-carbamic acid 3-{4-[N′-(3-methyl-benzylidene)-hydrazino]-6-morpholin-4-yl-pyrimidin-2-yl}-propyl ester], the pIC50 is under 7.30.

On to `Cc1cccc(/C=N/Nc2cc(N3CCOCC3)nc(CCCOC(=O)Nc3ccc(Oc4ccccc4)cc3)n2)c1` [Compound 11, (4-Phenoxy-phenyl)-carbamic acid 3-{4-[N′-(3-methyl-benzylidene)-hydrazino]-6-morpholin-4-yl-pyrimidin-2-yl}-propyl ester], for which the negative logarithm of the IC50 (pIC50) was 7.30 to 7.60.

Regarding `Cc1ccc(NC(=O)OCCc2nc(N/N=C/c3cccc(C)c3)cc(N3CCOCC3)n2)cc1` [Compound 13, p-Tolyl-carbamic acid 2-{4-[N′-(3-methyl-benzylidene)-hydrazino]-6-morpholin-4-yl-pyrimidin-2-yl}-ethyl ester], the pIC50 was over 7.60.

As for `Cc1ccc(NC(=O)OCCCc2nc(N3CCOCC3)cc(N(C)/N=C/c3cccc(C)c3)n2)cc1` [Compound 14, p-Tolyl-carbamic acid 3-{4-[N-methyl-N′-(3-methyl-benzylidene)-hydrazino]-6-morpholin-4-yl-pyrimidin-2-yl}-propyl ester], the negative logarithm of the IC50 (pIC50) was over 7.60.

For `Cc1cccc(/C=N/Nc2cc(N3CCOCC3)nc(CCOC(=O)Nc3ccc([N+](=O)[O-])cc3)n2)c1` [Compound 15, (4-Nitro-phenyl)-carbamic acid 2-{4-[N′-(3-methyl-benzylidene)-hydrazino]-6-morpholin-4-yl-pyrimidin-2-yl}-ethyl ester], the pIC50 was over 7.60.

As for `Cc1ccc(NC(=O)OC(C)(C)Cc2nc(N/N=C/c3cccc(C)c3)cc(N3CCOCC3)n2)cc1` [Compound 16, p-Tolyl-carbamic acid 1,1-dimethyl-2-{4-[N′-(3-methyl-benzylidene)-hydrazino]-6-morpholin-4-yl-pyrimidin-2-yl}-ethyl ester], the pIC50 is over 7.60.

`CCNC(=O)OCCc1nc(N/N=C/c2cccc(C)c2)cc(N2CCOCC2)n1` [Compound 17, Ethyl-carbamic acid 2-{4-[N′-(3-methyl-benzylidene)-hydrazino]-6-morpholin-4-yl-pyrimidin-2-yl}-ethyl ester]: the negative-log IC50 (pIC50) was over 7.60.

For the molecule `Cc1cccc(/C=N/Nc2cc(N3CCOCC3)nc(CCSc3nnnn3CCN(C)C)n2)c1` [Compound 18, Dimethyl-{2-[5-(2-{4-[N′-(3-methyl-benzylidene)-hydrazino]-6-morpholin-4-yl-pyrimidin-2-yl}-ethylsulfanyl)-tetrazol-1-yl]-ethyl}-amine], the pIC50 was over 7.60.

Consider `Cc1ccc(NC(=O)OCCOc2nc(N/N=C/c3cccc(C)c3)cc(N3CCOCC3)n2)cc1` [Compound 19, p-Tolyl-carbamic acid 2-{4-[N′-(3-methyl-benzylidene)-hydrazino]-6-morpholin-4-yl-pyrimidin-2-yloxy}-ethyl ester], for which the negative-log IC50 (pIC50) was over 7.60.

For `Cc1cccc(/C=N/Nc2cc(N3CCOCC3)nc(CCOC(=O)Nc3ccc(C(C)C)cc3)n2)c1` [Compound 20, (4-Isopropyl-phenyl)-carbamic acid 2-{4-[N′-(3-methyl-benzylidene)-hydrazino]-6-morpholin-4-yl-pyrimidin-2-yl}-ethyl ester], the pIC50 was under 7.30.

Regarding `Cc1cccc(/C=N/Nc2cc(N3CCOCC3)nc(CCOC(=O)Nc3ccc(Cl)cc3)n2)c1` [Compound 21, (4-Chloro-phenyl)-carbamic acid 2-{4-[N′-(3-methyl-benzylidene)-hydrazino]-6-morpholin-4-yl-pyrimidin-2-yl}-ethyl ester], the negative logarithm of the IC50 (pIC50) is 7.30 to 7.60.

`Cc1cccc(/C=N/Nc2cc(N3CCOCC3)nc(CCOC(=O)Nc3ccc(C#N)cc3)n2)c1` [Compound 22, (4-Cyano-phenyl)-carbamic acid 2-{4-[N′-(3-methyl-benzylidene)-hydrazino]-6-morpholin-4-yl-pyrimidin-2-yl}-ethyl ester]: the negative-log IC50 (pIC50) was over 7.60.

For `COC(=O)c1ccc(NC(=O)OCCc2nc(N/N=C/c3cccc(C)c3)cc(N3CCOCC3)n2)cc1` [Compound 23, 4-(2-{4-[N′-(3-Methyl-benzylidene)-hydrazino]-6-morpholin-4-yl-pyrimidin-2-yl}-ethoxycarbonylamino)-benzoic acid methyl ester], the pIC50 is over 7.60.

For the molecule `Cc1cccc(/C=N/Nc2cc(N3CCOCC3)nc(CCOC(=O)Nc3ccccc3)n2)c1` [Compound 24, Phenyl-carbamic acid 2-{4-[N′-(3-methyl-benzylidene)-hydrazino]-6-morpholin-4-yl-pyrimidin-2-yl}-ethyl ester], the negative logarithm of the IC50 (pIC50) is over 7.60.

Take `Cc1cccc(/C=N/Nc2cc(N3CCOCC3)nc(CCSc3nnc(-c4ccncc4)[nH]3)n2)c1` [Compound 25, N-(3-Methyl-benzylidene)-N′-{6-morpholin-4-yl-2-[2-(5-pyridin-4-yl-4H-[1,2,4]triazol-3-ylsulfanyl)-ethyl]-pyrimidin-4-yl}-hydrazine]: the pIC50 was over 7.60.

Take `Cc1cccc(/C=N/Nc2cc(N3CCOCC3)nc(CCC(C)(C)OC(=O)Nc3cccc(C)c3)n2)c1` [Compound 26, m-Tolyl-carbamic acid 1,1-dimethyl-3-{4-[N′-(3-methyl-benzylidene)-hydrazino]-6-morpholin-4-yl-pyrimidin-2-yl}-propyl ester]: the negative logarithm of the IC50 (pIC50) is 7.30 to 7.60.

Source of the values: patent publication US7872005B2, “2-substituted heteroaryl compounds” (Synta Pharmaceuticals Corporation, priority 2004, dated 2011).
